What all share (assay): Kinase selectivity, DiscoverX scanMAX Kinase assay panel (% control)
What all share (format): binding

Assay [1] concerns the target T1, kinases of the scanMAX Kinase assay panel (Homo sapiens, UniProt O14920).
T1 construct: purchased DiscoverX Co. (contract measurement) scanMAX Kinase assay panel
T1 sequence (O14920 1-756): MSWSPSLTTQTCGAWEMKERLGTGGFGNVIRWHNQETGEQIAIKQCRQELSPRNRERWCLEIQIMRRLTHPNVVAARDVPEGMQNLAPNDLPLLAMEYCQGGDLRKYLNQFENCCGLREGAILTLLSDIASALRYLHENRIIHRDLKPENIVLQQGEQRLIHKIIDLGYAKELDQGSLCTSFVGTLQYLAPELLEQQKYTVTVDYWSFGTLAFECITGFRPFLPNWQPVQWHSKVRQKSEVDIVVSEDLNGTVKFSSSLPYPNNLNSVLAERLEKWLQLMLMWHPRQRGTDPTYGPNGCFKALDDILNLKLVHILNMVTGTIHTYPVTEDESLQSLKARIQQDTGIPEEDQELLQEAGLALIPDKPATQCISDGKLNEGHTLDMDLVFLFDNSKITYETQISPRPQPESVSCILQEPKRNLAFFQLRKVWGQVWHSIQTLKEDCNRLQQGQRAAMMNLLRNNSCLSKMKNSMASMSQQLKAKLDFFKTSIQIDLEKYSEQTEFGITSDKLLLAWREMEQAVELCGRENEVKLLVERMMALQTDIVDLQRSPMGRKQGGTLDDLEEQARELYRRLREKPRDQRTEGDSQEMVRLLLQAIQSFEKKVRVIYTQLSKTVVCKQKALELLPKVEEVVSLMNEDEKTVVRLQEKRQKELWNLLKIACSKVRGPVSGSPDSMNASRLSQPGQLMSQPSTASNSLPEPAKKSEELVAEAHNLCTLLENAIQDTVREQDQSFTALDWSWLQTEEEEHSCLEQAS
The settings on record: IKK-beta; 1 uM. The essentials:
(§1)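 Each enzyme is treated with drug at 1 uM in DMSO, then signal is scaled between a positive control (0%) and DMSO (100%) to give % control. Kinases with % control under 35% are scored as inhibited.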

Assay [2] addresses T2, kinases of the scanMAX Kinase assay panel (Homo sapiens, UniProt P12931).
T2 construct: purchased DiscoverX Co. (contract measurement) scanMAX Kinase assay panel
The settings on record: kinase SRC; 1 uM in DMSO. The gist of the method:
as §1

Assay [3] addresses T3, kinases of the scanMAX Kinase assay panel (Homo sapiens, UniProt P21802).
T3 construct: purchased DiscoverX Co. (contract measurement) scanMAX Kinase assay panel
The following applies: FGFR2; 1 uM. The essentials:
as §1

Assay [4] concerns the target T4, kinases of the scanMAX Kinase assay panel (Homo sapiens, UniProt P29376).
T4 construct: purchased DiscoverX Co. (contract measurement) scanMAX Kinase assay panel
The settings on record: LTK; 1 uM. The gist of the method:
as §1

Assay [5] deals with T5, kinases of the scanMAX Kinase assay panel (Homo sapiens, UniProt P41240).
T5 construct: purchased DiscoverX Co. (contract measurement) scanMAX Kinase assay panel
The settings on record: CSK; 1 uM. The essentials: as §1

Assay [6] has as its target T6, kinases of the scanMAX Kinase assay panel (Homo sapiens, UniProt P51617).
T6 construct: purchased DiscoverX Co. (contract measurement) scanMAX Kinase assay panel
The following applies: IRAK1; 1 uM. The gist of the method: as §1

The target in assay [7] is T7, kinases of the scanMAX Kinase assay panel (Homo sapiens, UniProt Q6ZN16).
T7 construct: purchased DiscoverX Co. (contract measurement) scanMAX Kinase assay panel
T7 sequence (Q6ZN16 1-1313): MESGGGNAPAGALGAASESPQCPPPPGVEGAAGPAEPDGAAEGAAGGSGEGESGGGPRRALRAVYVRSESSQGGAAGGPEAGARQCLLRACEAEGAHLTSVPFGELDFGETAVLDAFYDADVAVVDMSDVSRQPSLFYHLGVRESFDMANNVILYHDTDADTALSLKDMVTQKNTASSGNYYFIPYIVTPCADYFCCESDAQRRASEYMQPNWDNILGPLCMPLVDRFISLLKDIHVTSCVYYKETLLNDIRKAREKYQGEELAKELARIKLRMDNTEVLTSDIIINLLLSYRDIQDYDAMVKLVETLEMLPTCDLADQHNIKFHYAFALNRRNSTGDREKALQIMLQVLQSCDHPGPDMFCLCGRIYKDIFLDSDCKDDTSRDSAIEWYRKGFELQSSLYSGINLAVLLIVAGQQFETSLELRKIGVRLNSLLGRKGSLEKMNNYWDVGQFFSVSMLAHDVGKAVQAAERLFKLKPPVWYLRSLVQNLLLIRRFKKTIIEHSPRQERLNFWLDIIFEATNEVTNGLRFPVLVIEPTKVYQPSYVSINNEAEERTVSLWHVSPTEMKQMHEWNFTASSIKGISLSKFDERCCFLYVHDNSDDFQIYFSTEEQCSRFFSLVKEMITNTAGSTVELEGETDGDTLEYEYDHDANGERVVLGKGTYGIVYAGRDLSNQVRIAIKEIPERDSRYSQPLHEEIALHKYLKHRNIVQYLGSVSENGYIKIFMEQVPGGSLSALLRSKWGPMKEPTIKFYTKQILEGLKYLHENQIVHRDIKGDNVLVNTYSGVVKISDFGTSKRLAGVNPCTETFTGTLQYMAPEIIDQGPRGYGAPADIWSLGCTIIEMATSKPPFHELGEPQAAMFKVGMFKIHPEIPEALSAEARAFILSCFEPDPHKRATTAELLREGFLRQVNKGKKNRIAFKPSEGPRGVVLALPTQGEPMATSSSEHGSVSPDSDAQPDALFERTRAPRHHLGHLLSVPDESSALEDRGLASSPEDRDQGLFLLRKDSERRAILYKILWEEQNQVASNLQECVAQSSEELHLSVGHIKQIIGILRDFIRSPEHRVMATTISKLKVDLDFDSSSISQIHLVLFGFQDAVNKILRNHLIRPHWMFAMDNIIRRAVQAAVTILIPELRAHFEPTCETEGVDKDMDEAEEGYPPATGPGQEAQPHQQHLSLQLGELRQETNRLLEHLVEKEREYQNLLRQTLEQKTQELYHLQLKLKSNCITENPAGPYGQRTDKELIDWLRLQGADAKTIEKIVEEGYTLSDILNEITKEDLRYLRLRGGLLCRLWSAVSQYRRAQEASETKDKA
The following applies: MAP3K15; 1 uM. The gist of the method:
as §1

In assay [8] the target is T8, kinases of the scanMAX Kinase assay panel (Homo sapiens, UniProt Q86UX6).
T8 construct: purchased DiscoverX Co. (contract measurement) scanMAX Kinase assay panel
The following applies: kinase YANK3; 1 uM in DMSO. The gist of the method:
as §1

For assay [9], the target named is T9, kinases of the scanMAX Kinase assay panel (Homo sapiens, UniProt Q9BWU1).
T9 construct: purchased DiscoverX Co. (contract measurement) scanMAX Kinase assay panel
The following applies: CDK11; 1 uM. The essentials: as §1

For 3 compounds, remaining binding results are on record in patent US11208412B2 (DAEGU-GYEONGBUK MEDICAL INNOVATION FOUNDATION, priority 2017, dated 2021).

T9 sequence (Q9BWU1 whole entry): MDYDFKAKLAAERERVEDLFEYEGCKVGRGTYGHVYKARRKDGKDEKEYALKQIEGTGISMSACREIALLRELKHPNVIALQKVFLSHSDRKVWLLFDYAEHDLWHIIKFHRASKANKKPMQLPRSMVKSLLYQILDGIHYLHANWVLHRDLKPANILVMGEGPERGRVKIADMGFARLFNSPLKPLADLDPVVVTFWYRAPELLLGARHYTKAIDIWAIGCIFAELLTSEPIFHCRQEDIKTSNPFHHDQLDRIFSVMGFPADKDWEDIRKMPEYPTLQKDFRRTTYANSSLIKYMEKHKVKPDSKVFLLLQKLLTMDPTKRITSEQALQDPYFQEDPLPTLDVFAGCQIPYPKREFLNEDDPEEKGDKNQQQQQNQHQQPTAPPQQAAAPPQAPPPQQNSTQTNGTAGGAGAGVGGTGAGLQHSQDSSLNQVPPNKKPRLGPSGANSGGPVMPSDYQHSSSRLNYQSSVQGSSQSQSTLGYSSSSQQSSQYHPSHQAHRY
T4 sequence (P29376 17-864): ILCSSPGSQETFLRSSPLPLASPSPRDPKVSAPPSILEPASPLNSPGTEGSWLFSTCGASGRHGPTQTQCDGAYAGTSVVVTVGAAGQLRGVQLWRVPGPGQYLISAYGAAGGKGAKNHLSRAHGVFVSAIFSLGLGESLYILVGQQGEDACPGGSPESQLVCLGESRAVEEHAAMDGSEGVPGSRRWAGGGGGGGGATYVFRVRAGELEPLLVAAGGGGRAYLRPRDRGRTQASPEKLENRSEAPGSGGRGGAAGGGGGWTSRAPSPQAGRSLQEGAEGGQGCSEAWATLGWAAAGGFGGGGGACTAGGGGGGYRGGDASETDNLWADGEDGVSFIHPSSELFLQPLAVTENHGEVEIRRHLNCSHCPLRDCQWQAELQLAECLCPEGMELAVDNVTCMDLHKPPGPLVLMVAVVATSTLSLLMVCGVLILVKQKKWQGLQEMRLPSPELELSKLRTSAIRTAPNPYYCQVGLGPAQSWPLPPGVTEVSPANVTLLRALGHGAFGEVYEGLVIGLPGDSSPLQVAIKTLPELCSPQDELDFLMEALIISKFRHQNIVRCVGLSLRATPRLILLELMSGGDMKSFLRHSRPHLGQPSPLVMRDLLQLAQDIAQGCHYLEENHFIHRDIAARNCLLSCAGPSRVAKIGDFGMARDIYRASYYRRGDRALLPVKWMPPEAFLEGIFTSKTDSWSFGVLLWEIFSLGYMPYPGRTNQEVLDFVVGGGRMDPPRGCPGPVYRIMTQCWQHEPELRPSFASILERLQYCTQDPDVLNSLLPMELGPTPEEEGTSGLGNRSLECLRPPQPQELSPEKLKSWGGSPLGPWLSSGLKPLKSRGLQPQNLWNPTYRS
T8 sequence (Q86UX6 whole entry): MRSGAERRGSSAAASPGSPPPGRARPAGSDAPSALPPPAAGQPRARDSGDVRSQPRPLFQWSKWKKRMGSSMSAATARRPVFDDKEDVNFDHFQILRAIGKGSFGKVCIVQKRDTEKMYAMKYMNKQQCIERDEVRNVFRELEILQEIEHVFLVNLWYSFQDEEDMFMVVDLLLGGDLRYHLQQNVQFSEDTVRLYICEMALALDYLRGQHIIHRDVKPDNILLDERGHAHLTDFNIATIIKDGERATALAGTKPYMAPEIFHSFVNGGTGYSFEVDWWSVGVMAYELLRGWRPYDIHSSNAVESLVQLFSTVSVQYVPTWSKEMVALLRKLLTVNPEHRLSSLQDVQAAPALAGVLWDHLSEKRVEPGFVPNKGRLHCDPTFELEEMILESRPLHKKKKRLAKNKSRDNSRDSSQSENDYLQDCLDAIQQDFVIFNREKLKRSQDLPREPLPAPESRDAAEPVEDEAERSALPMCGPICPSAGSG
T5 sequence (P41240 whole entry): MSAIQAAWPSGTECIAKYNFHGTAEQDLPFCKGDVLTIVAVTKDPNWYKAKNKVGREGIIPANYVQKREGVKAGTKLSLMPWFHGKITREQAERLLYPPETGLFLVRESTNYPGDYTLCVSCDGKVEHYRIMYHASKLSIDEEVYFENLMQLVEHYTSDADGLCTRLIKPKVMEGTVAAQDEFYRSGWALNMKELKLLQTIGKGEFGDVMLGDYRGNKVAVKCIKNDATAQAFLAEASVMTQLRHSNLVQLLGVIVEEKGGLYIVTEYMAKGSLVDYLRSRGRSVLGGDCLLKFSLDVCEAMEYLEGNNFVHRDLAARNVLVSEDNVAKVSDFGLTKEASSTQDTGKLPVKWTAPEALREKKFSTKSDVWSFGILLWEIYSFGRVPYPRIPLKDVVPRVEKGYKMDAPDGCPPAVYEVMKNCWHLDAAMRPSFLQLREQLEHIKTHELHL
T2 sequence (P12931 whole entry): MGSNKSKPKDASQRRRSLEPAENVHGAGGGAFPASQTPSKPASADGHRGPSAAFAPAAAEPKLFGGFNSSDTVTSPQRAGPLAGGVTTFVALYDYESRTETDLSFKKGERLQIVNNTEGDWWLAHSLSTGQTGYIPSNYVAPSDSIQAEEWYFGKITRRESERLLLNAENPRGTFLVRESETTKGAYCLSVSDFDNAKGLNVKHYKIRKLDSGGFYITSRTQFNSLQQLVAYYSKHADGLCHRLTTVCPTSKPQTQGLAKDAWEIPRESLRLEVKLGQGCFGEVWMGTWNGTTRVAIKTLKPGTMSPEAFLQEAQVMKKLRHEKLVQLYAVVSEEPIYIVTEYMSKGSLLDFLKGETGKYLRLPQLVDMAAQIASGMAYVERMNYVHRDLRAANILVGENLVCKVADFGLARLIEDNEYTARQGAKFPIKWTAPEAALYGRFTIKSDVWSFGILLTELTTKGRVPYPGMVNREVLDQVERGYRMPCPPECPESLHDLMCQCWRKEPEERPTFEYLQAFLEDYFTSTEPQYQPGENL
T3 sequence (P21802 22-821): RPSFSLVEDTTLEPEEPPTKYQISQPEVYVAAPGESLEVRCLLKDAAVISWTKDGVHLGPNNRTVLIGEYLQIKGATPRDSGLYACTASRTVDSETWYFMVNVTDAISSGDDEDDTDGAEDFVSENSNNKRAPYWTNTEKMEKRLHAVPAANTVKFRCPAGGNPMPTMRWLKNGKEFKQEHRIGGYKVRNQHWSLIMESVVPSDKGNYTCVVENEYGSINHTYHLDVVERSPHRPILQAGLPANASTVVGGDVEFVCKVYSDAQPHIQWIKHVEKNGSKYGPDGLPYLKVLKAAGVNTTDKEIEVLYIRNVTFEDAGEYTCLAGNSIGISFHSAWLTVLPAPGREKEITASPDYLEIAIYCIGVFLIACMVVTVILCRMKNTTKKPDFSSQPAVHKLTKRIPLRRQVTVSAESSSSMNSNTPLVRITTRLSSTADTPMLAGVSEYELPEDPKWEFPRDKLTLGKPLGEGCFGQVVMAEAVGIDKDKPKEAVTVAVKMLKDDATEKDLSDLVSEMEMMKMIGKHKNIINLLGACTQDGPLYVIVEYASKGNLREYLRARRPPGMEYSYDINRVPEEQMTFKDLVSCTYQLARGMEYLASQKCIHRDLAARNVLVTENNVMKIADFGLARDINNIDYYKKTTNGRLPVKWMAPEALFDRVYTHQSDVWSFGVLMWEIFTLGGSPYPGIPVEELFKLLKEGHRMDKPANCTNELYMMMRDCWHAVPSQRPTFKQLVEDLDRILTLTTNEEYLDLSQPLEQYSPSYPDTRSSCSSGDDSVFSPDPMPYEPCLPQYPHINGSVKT
T6 sequence (P51617 whole entry): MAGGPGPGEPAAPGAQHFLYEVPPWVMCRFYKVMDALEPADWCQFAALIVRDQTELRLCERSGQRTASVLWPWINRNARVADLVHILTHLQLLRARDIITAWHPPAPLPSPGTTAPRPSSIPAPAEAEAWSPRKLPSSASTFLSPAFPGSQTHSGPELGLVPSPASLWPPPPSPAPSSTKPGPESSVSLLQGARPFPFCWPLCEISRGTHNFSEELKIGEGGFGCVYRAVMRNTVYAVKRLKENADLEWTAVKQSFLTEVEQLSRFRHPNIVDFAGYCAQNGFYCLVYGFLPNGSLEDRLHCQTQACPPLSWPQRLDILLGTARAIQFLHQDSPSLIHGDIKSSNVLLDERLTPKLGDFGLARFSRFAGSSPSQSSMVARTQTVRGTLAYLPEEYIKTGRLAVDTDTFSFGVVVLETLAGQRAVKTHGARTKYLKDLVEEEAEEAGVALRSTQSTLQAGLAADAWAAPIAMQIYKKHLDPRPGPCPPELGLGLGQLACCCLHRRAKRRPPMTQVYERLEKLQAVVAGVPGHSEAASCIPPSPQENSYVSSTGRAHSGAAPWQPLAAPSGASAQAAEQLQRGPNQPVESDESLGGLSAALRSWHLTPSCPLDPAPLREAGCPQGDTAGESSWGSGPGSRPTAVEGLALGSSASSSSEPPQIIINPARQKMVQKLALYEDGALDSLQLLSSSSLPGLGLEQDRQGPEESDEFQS

As for `CC1(Nc2nc(Nc3cnn([C@H]4CCN(C5COC5)C[C@@H]4F)c3Cl)nc3[nH]cc(C#N)c23)CC1` [Example 52, 2-((5-chloro-1-((3S,4S)-3-fluoro-1-(oxetane-3-yl)piperidine-4-yl)-1H-pyrazole-4-yl)amino)((1-methylcyclopropyl)amino)-7H-pyrrolo[2,3-d]pyrimidine-5-carbonitrile], the remaining binding at 1 µM in assay [1] is 9.7%; in [2], 4.6%; in assay [3] it was 26%; in assay [4], 3.4%; in assay [5], 33%; in assay [6], 1.4%. The values for the remaining binding at 1 µM in assay [7], in assay [8] and in [9] were 27%, 100% and 100%, respectively.
`CCNc1nc(Nc2ccc(C(=O)N3CCC(N4CCOCC4)CC3)cc2OC)nc2[nH]cc(C(F)(F)F)c12` [Example 104, (4-((4-(ethylamino)-5-(trifluoromethyl)-7H-pyrrolo[2,3-d]pyrimidine-2-yl)amino)-3-methoxyphenyl)(4-morpholinopiperidine-1-yl)methanone]: the remaining binding at 1 µM came out at 92% in [1]; 100% in assay [2]; 96% in [3]; 3.7% in assay [4]; 85% in [5]; 100% in assay [6]. The remaining binding at 1 µM in assay [7] was 61%; in [8], 65%; in assay [9], 96%.
For `CNc1nc(Nc2ccc(C(=O)N3CCOCC3)cc2OC)nc2[nH]cc(C#N)c12` [Example 1, 2-((2-methoxy-4-(morpholine-4-carbonyl)phenyl)amino)-4-(methylamino)-7H-pyrrolo[2,3-d]pyrimidine-5-carbonitrile], the remaining binding at 1 µM was 75% in assay [1]; 90% in [2]; 95% in assay [3]; 6.8% in [4]; 99% in assay [5]; 75% in assay [6]. Further, the remaining binding at 1 µM in assay [7] was 35%; in [8], 100%; in assay [9], 87%.
